This note sets out measurements from patent US20230331604A1, “METHOD FOR THE ELECTROCHEMICAL CONTROL OF THE PHOTOSYNTHETIC METABOLISM OF PURPLE NON-SULFUR BACTERIA AND REDOX MEDIATORS THEREOF” (Zuccato HC S.r.l., priority 2020, published 2023).

Data set [1] is described as follows: equilibrium potential of the redox mediator. The class given is physicochemical. As to conditions: vs SCE reference electrode. The source says:
This is enabled by the use of suitable fat-soluble redox mediators ([2], [3]) capable of permeabilizing the bacterial membrane and entering the cytoplasm, in order to alter the oxidation state of the disulfide bond present in type A thioredoxins, as well as by appropriate light irradiation.

In data set [2] the test system is Rhodobacter sphaeroides (ATCC 55304). Description: bacteriochlorophyll synthesized by Rhodobacter sphaeroides under electrochemical control vs aerobic growth (absorption spectra). The class given is cell-based. The conditions noted are these: 50 nM safranin, acetone/methanol extract, absorbance normalized to 660 nm.
Method: A homemade potentiostat was used as an external source of free energy, capable of providing a current of up to 100 mA and keeping the potential constant within the range of −2 V÷+2 V).
The materials of the electrodes used are: • Working electrode: stainless steel grid with 1 mm mesh spacing. • Counter electrode: graphite bars (0.8 cm in diameter, 30 cm long) • Reference electrode: (SCE)
Safranin T, molecular mass equal to 350.85. (Fluka) at a concentration equal to 50 nM, was used as redox mediator in the cell.
The solution inside the fermenter/reactor was kept under mild stirring to facilitate the recirculation of the redox mediator molecules.

In the case of `Cc1cc2nc3cc(C)c(N)cc3[n+](-c3ccccc3)c2cc1N.[Cl-]` [Safranin T, safranin T], the equilibrium potential entry in data set [1] is “about −540 mV”. In addition, in data set [2], the “intensity of bacteriochlorophyll absorption bands compared to the corresponding aerobic population” value is reported as “almost tripled”.
